What was measured:
Format in all cases: in vivo
Stellaria media = assay: Test Example 4: herbicidal effect by application to foliage (diluvial soil, plastic box); conditions: 320 g/ha; for herbicidal effect, P (Stellaria media): application to foliage
Procedure, shortened: (§1)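 Read-out is a 0–5 visual grade of herbicidal ratio (5: ≥90%, almost withered; 0: ≤5%) taken three weeks after treatment. Compound was applied as a diluted emulsion to stem and leaf parts of 14-day greenhouse-grown plants (25° C. to 30° C.) at rates expressed as g/ha.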

Abutilon theophrasti = assay: as above; conditions: 320 g/ha; for herbicidal effect, M (Abutilon theophrasti): application to foliage
Procedure, shortened: as §1

Lolium multiflorum Lam. = assay: as above; conditions: 320 g/ha; for herbicidal effect, K (Lolium multiflorum Lam.): application to foliage
Procedure, shortened: as §1

Apera spica-venti. = assay: as above; conditions: 320 g/ha; for herbicidal effect, L (Apera spica-venti.): application to foliage
Procedure, shortened: as §1

Setaria viridis = assay: as above; conditions: 320 g/ha; for herbicidal effect, G (Setaria viridis): application to foliage
Procedure, shortened: as §1

Amaranthus retroflexus = assay: as above; conditions: 320 g/ha; for herbicidal effect, N (Amaranthus retroflexus): application to foliage
Procedure, shortened: as §1

Avena fatua = assay: as above; conditions: 320 g/ha; for herbicidal effect, I (Avena fatua): application to foliage
Procedure, shortened: as §1

Galium spurium = assay: as above; conditions: 320 g/ha; for herbicidal effect, Q (Galium spurium): application to foliage
Procedure, shortened: as §1

Chenopodium album = assay: as above; conditions: 320 g/ha; for herbicidal effect, O (Chenopodium album): application to foliage
Procedure, shortened: as §1

[1] = tested on: Echinochloa crus-galli var. crus-galli; assay: as above; conditions: 320 g/ha; for herbicidal effect, H (Echinochloa crus-galli var. crus-galli): application to foliage
Procedure, shortened: as §1

Alopecurus myosuroides = assay: as above; conditions: 320 g/ha; for herbicidal effect, J (Alopecurus myosuroides): application to foliage
Procedure, shortened: as §1

Veronica persica = assay: as above; conditions: 320 g/ha; for herbicidal effect, R (Veronica persica): application to foliage
Procedure, shortened: as §1

Digitaria ciliaris = assay: as above; conditions: 320 g/ha; for herbicidal effect, F (Digitaria ciliaris): application to foliage
Procedure, shortened: as §1

Zea mays = assay: Test Example 4: effect on crop by application to foliage (diluvial soil, plastic box); conditions: 320 g/ha; for effect on crop, b (Zea mays): application to foliage
Procedure, shortened: as §1

[2] = tested on: directly sowed Oryza sativa; assay: as above; conditions: 320 g/ha; for effect on crop, d (directly sowed Oryza sativa): application to foliage
Procedure, shortened: as §1

[3] = tested on: Beta vulgaris ssp. vulgaris; assay: as above; conditions: 320 g/ha; for effect on crop, f (Beta vulgaris ssp. vulgaris): application to foliage
Procedure, shortened: as §1

Glycine max = assay: as above; conditions: 320 g/ha; for effect on crop, c (Glycine max): application to foliage
Procedure, shortened: as §1

Brassica campestris L. = assay: as above; conditions: 320 g/ha; for effect on crop, g (Brassica campestris L.): application to foliage
Procedure, shortened: as §1

Triticum aestivum = assay: as above; conditions: 320 g/ha; for effect on crop, e (Triticum aestivum): application to foliage
Procedure, shortened: as §1

[4] = tested on: Echinochloa oryzacola Vasing.; assay: Test Example 1: herbicidal activity, application before weed generation in submerged conditions; conditions: Seventeenth Table; for A (Echinochloa oryzicola Vasing.) herbicidal ratio grade: application herbicide amount 320 g/ha
Procedure, shortened: (§2)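 Submerged pot test: alluvial soil, 4 cm water, seeds sown mixed, 2.5-leaf rice transplanted; emulsion in water applied to surface day of sowing, dose g/ha; greenhouse 25–30° C.; 3 wk; 0–5 rating.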

Scirpus juncoides = assay: as above; conditions: Seventeenth Table; for B (Scirpus juncoides) herbicidal ratio grade: application herbicide amount 320 g/ha
Procedure, shortened: as §2

Monochoria vaginalis = assay: as above; conditions: Seventeenth Table; for C (Monochoria vaginalis) herbicidal ratio grade: application herbicide amount 320 g/ha
Procedure, shortened: as §2

[5] = Application herbicide amount 320 g/ha

COCCNc1nnc2c(C(=O)Nc3nnnn3C)ccc(C(F)(F)F)n12 [2-074]
P (Stellaria media) herbicidal effect grade (Stellaria media; foliage application): 4 (Herbicidal ratio of 70% or more and less than 90%) | M (Abutilon theophrasti) herbicidal effect grade (Abutilon theophrasti; foliage application): 4 (Herbicidal ratio of 70% or more and less than 90%) | K (Lolium multiflorum Lam.) herbicidal effect grade (Lolium multiflorum Lam.; foliage application): 3 (Herbicidal ratio of 40% or more and less than 70%) | L (Apera spica-venti.) herbicidal effect grade (Apera spica-venti.; foliage application): 3 (Herbicidal ratio of 40% or more and less than 70%) | G (Setaria viridis) herbicidal effect grade (Setaria viridis; foliage application): 4 (Herbicidal ratio of 70% or more and less than 90%) | N (Amaranthus retroflexus) herbicidal effect grade (Amaranthus retroflexus; foliage application): 5 (Herbicidal ratio of 90% or more (almost completely withered)) | I (Avena fatua) herbicidal effect grade (Avena fatua; foliage application): 4 (Herbicidal ratio of 70% or more and less than 90%) | Q (Galium spurium) herbicidal effect grade (Galium spurium; foliage application): 3 (Herbicidal ratio of 40% or more and less than 70%) | O (Chenopodium album) herbicidal effect grade (Chenopodium album; foliage application): 5 (Herbicidal ratio of 90% or more (almost completely withered)) | H (Echinochloa crus-galli var. crus-galli) herbicidal effect grade ([1]; foliage application): 5 (Herbicidal ratio of 90% or more (almost completely withered)) | J (Alopecurus myosuroides) herbicidal effect grade (Alopecurus myosuroides; foliage application): 3 (Herbicidal ratio of 40% or more and less than 70%) | R (Veronica persica) herbicidal effect grade (Veronica persica; foliage application): 5 (Herbicidal ratio of 90% or more (almost completely withered)) | F (Digitaria ciliaris) herbicidal effect grade (Digitaria ciliaris; foliage application): 5 (Herbicidal ratio of 90% or more (almost completely withered)) | b (Zea mays) effect on crop grade (Zea mays; foliage application): 5 (Herbicidal ratio of 90% or more (almost completely withered)) | d (directly sowed Oryza sativa) effect on crop grade ([2]; foliage application): 4 (Herbicidal ratio of 70% or more and less than 90%) | f (Beta vulgaris ssp. vulgaris) effect on crop grade ([3]; foliage application): 5 (Herbicidal ratio of 90% or more (almost completely withered)) | c (Glycine max) effect on crop grade (Glycine max; foliage application): 3 (Herbicidal ratio of 40% or more and less than 70%) | g (Brassica campestris L.) effect on crop grade (Brassica campestris L.; foliage application): 4 (Herbicidal ratio of 70% or more and less than 90%) | e (Triticum aestivum) effect on crop grade (Triticum aestivum; foliage application): 3 (Herbicidal ratio of 40% or more and less than 70%) | A: Echinochloa oryzicola Vasing. (herbicidal effect grade) [4, 5]: 4 (Herbicidal ratio of 70% or more and less than 90%) | B: Scirpus juncoides (herbicidal effect grade) (Scirpus juncoides; [5]): 4 (Herbicidal ratio of 70% or more and less than 90%) | C: Monochoria vaginalis (herbicidal effect grade) (Monochoria vaginalis; [5]): 3 (Herbicidal ratio of 40% or more and less than 70%)

Cn1nnnc1NC(=O)c1ccc(C(F)(F)F)n2c(C3(C)CC3(Cl)Cl)nnc12 (stereo not drawn) [2-110]
herbicidal effect, P (Stellaria media) (Stellaria media): 5 (Herbicidal ratio of 90% or more (almost completely withered)) | herbicidal effect, M (Abutilon theophrasti) (Abutilon theophrasti): 5 (Herbicidal ratio of 90% or more (almost completely withered)) | herbicidal effect, K (Lolium multiflorum Lam.) (Lolium multiflorum Lam.): 3 (Herbicidal ratio of 40% or more and less than 70%) | herbicidal effect, L (Apera spica-venti.) (Apera spica-venti.): 3 (Herbicidal ratio of 40% or more and less than 70%) | herbicidal effect, G (Setaria viridis) (Setaria viridis): 4 (Herbicidal ratio of 70% or more and less than 90%) | herbicidal effect, N (Amaranthus retroflexus) (Amaranthus retroflexus): 5 (Herbicidal ratio of 90% or more (almost completely withered)) | herbicidal effect, I (Avena fatua) (Avena fatua): 3 (Herbicidal ratio of 40% or more and less than 70%) | herbicidal effect, Q (Galium spurium) (Galium spurium): 5 (Herbicidal ratio of 90% or more (almost completely withered)) | herbicidal effect, O (Chenopodium album) (Chenopodium album): 5 (Herbicidal ratio of 90% or more (almost completely withered)) | herbicidal effect, H (Echinochloa crus-galli var. crus-galli) [1]: 5 (Herbicidal ratio of 90% or more (almost completely withered)) | herbicidal effect, J (Alopecurus myosuroides) (Alopecurus myosuroides): 2 (Herbicidal ratio of 20% or more and less than 40%) | herbicidal effect, R (Veronica persica) (Veronica persica): 5 (Herbicidal ratio of 90% or more (almost completely withered)) | herbicidal effect, F (Digitaria ciliaris) (Digitaria ciliaris): 5 (Herbicidal ratio of 90% or more (almost completely withered)) | effect on crop, b (Zea mays) (Zea mays): 4 (Herbicidal ratio of 70% or more and less than 90%) | effect on crop, d (directly sowed Oryza sativa) [2]: 4 (Herbicidal ratio of 70% or more and less than 90%) | effect on crop, f (Beta vulgaris ssp. vulgaris) [3]: 5 (Herbicidal ratio of 90% or more (almost completely withered)) | effect on crop, c (Glycine max) (Glycine max): 0 (Herbicidal ratio of 5% or less (almost no effect)) | effect on crop, g (Brassica campestris L.) (Brassica campestris L.): 4 (Herbicidal ratio of 70% or more and less than 90%) | effect on crop, e (Triticum aestivum) (Triticum aestivum): 3 (Herbicidal ratio of 40% or more and less than 70%) | A (Echinochloa oryzicola Vasing.) herbicidal ratio grade [4]: 5 (Herbicidal ratio of 90% or more (almost completely withered)) | B (Scirpus juncoides) herbicidal ratio grade (Scirpus juncoides): 5 (Herbicidal ratio of 90% or more (almost completely withered)) | C (Monochoria vaginalis) herbicidal ratio grade (Monochoria vaginalis): 5 (Herbicidal ratio of 90% or more (almost completely withered))

CC(=O)OCc1nnc2c(C(=O)Nc3nnnn3C)ccc(C(F)(F)F)n12 [2-107]
herbicidal effect, P (Stellaria media) (Stellaria media): 5 (Herbicidal ratio of 90% or more (almost completely withered)) | herbicidal effect, M (Abutilon theophrasti) (Abutilon theophrasti): 5 (Herbicidal ratio of 90% or more (almost completely withered)) | herbicidal effect, K (Lolium multiflorum Lam.) (Lolium multiflorum Lam.): 0 (Herbicidal ratio of 5% or less (almost no effect)) | herbicidal effect, L (Apera spica-venti.) (Apera spica-venti.): 0 (Herbicidal ratio of 5% or less (almost no effect)) | herbicidal effect, G (Setaria viridis) (Setaria viridis): 3 (Herbicidal ratio of 40% or more and less than 70%) | herbicidal effect, N (Amaranthus retroflexus) (Amaranthus retroflexus): 5 (Herbicidal ratio of 90% or more (almost completely withered)) | herbicidal effect, I (Avena fatua) (Avena fatua): 1 (Herbicidal ratio of 5% or more and less than 20%) | herbicidal effect, Q (Galium spurium) (Galium spurium): 4 (Herbicidal ratio of 70% or more and less than 90%) | herbicidal effect, O (Chenopodium album) (Chenopodium album): 5 (Herbicidal ratio of 90% or more (almost completely withered)) | herbicidal effect, H (Echinochloa crus-galli var. crus-galli) [1]: 5 (Herbicidal ratio of 90% or more (almost completely withered)) | herbicidal effect, J (Alopecurus myosuroides) (Alopecurus myosuroides): 0 (Herbicidal ratio of 5% or less (almost no effect)) | herbicidal effect, R (Veronica persica) (Veronica persica): 5 (Herbicidal ratio of 90% or more (almost completely withered)) | herbicidal effect, F (Digitaria ciliaris) (Digitaria ciliaris): 5 (Herbicidal ratio of 90% or more (almost completely withered)) | effect on crop, b (Zea mays) (Zea mays): 3 (Herbicidal ratio of 40% or more and less than 70%) | effect on crop, d (directly sowed Oryza sativa) [2]: 5 (Herbicidal ratio of 90% or more (almost completely withered)) | effect on crop, f (Beta vulgaris ssp. vulgaris) [3]: 5 (Herbicidal ratio of 90% or more (almost completely withered)) | effect on crop, c (Glycine max) (Glycine max): 0 (Herbicidal ratio of 5% or less (almost no effect)) | effect on crop, g (Brassica campestris L.) (Brassica campestris L.): 4 (Herbicidal ratio of 70% or more and less than 90%) | effect on crop, e (Triticum aestivum) (Triticum aestivum): 0 (Herbicidal ratio of 5% or less (almost no effect)) | A (Echinochloa oryzicola Vasing.) herbicidal ratio grade [4]: 2 (Herbicidal ratio of 20% or more and less than 40%) | B (Scirpus juncoides) herbicidal ratio grade (Scirpus juncoides): 3 (Herbicidal ratio of 40% or more and less than 70%) | C (Monochoria vaginalis) herbicidal ratio grade (Monochoria vaginalis): 2 (Herbicidal ratio of 20% or more and less than 40%)
